Measured values from US9775844B2, “Heterocyclic compounds and uses thereof” (Infinity Pharmaceuticals, Inc., priority 2014, dated 2017).

Columns and labels:
[1] = system: spleen T cell proliferation; experiment: Ex vivo T-cell proliferation assay with tumor-derived cells from treated mice; type: in vivo
[2] = Mouse pharmacokinetics, oral single and repeat dose; conditions: in vivo, 10 mg/kg in NMP solution, read-out: Mouse PK AUClast @ 10 mg/kg in NMP solution
[3] = system: CD11b+ myeloid cells in 4T1 tumors; experiment: Immunohistochemistry of CD11b / CD68 myeloid cells in 4T1 tumors; type: in vivo, mouse; conditions: vs vehicle/controls
Method: Immunohistochemistry was performed to determine the distribution of immune cells within the tumor. In particular, CD11b myeloid cells were examined, as were regulatory vs. effector T cells (CD3, CD4, CD8, FoxP3). Briefly, IHC for CD11b or CD68+ was performed as follows. CD11b antibodies were available from Abcam, clone I-70, Catalong # ab 8878. CD68 antibodies were available from Abcam, clone FA-11, catalog # ab 53444. Tissues were fixed in cold methanol, air-dried, and then stained using a Res IHC Omni-UltraMap HRP XT protocol.
Without being bound by a particular theory, the decrease in the pro-tumorigenic tumor associated myeloid cells can result in activation of cytotoxic T-cells and anti-tumor immunity. […] When the images were quantified as CD11b+ cells per total viable cells (FIG. 37E), a Student t-Test p-value of 0.0355 was obtained when comparing the Compound BB-treated cells to controls. When the images were quantified as CD11b+ stained area per total visible area (FIG. 37F), a Student t-Test p-value of 0.0441 was obtained when comparing the Compound BB-treated cells to controls. […] When the images were quantified as CD11b+ cells per total viable cells (FIG. 37G), a Student t-Test p-value of 0.0864 (d16) or 0.3967 (d22) was obtained when comparing the Compound BB-treated cells to controls. […]

[4] = system: bone marrow cells differentiating into MDSCs; experiment: Myeloid Derived Suppressor Cell differentiation assay; type: cell-based; conditions: FIG. 24A/24B
Method: A similar experiment was performed on bone marrow cells differentiating into MDSCs.

Cyp = Cyp Induction (activity and mRNA); type: in vitro ADME
[5] = system: suppression of spleen T cell proliferation by CT26 tumor cells; experiment: Ex vivo T cell proliferation assay with CT26 tumor cells (CFSE); type: cell-based, mouse; conditions: tumors from treated mice
Method: The duration of the study was 1 week under treatment. 5-6 week old female, Balb/c mice (Jackson Labs) implanted subcutaneously with 5×10^5 CT26 cells in 100 μl PBS. CT26 cells were cultured in RPMI supplemented with 10% FBS. Dosing commenced when tumors reached an average volume of 500-600 mm^3
For group 3 (αPD-L1), the mice were dosed once, IP, 200 ug (200 uL from 1 mg/ml stock).
Mice were monitored daily for adverse clinical effects. Body weights and tumor luminescent were measured two times per week. At the end of the study, tumors were harvested and cut into 3 parts; one piece for CTL killing assay, one piece for CSFE proliferation assay and one piece (split into two) for OCT/FFPE.
Spleens from 3 vehicle treated tumor bearing mice were physically dissociated in T cell media and passed through a 70 micron filter. After red cell lysis, the cells were pooled, brought up in PBS and stained with CFSE (invitrogen). After washing, these cells were brought up in 20 ml T cell media. Half the cells received Dynal mouse activator beads (CD3/CD28 crosslinking at a 1:1 […]). CD3/CD28 beads induce proliferation in splenocytes from tumor bearing mouse (data not shown).
The cells were treated with red cell lysis buffer, washed, and re-suspended in 10 ml T cell media. 2 mls of the each tumor cell suspension were plated into each of two 12 well plates. […]

[6] = system: LPS induced neutrophil influx in bronchoalveolar lavage fluid; experiment: LPS-induced neutrophilia, oral administration; type: in vivo; conditions: rat, p.o., 4 hours post-LPS challenge, dose dependent
Method: This study also includes assessment of the exposure to the compounds in plasma and lung tissues.
Ref C is budesonide p.o. The compound was administered p.o. and about 1 hour later, LPS was administered intra-tracheally and plasma was collected. After about 5 hours, plasma and bronchoalveolar lavage samples were collected.

P-GP (P-glycoprotein 1) = P-GP (P-glycoprotein 1) (Homo sapiens (Human), UniProt P08183); experiment: P-glycoprotein inhibition; type: in vitro ADME
Chain of P-GP (P-glycoprotein 1) (P08183 whole entry, species assumed): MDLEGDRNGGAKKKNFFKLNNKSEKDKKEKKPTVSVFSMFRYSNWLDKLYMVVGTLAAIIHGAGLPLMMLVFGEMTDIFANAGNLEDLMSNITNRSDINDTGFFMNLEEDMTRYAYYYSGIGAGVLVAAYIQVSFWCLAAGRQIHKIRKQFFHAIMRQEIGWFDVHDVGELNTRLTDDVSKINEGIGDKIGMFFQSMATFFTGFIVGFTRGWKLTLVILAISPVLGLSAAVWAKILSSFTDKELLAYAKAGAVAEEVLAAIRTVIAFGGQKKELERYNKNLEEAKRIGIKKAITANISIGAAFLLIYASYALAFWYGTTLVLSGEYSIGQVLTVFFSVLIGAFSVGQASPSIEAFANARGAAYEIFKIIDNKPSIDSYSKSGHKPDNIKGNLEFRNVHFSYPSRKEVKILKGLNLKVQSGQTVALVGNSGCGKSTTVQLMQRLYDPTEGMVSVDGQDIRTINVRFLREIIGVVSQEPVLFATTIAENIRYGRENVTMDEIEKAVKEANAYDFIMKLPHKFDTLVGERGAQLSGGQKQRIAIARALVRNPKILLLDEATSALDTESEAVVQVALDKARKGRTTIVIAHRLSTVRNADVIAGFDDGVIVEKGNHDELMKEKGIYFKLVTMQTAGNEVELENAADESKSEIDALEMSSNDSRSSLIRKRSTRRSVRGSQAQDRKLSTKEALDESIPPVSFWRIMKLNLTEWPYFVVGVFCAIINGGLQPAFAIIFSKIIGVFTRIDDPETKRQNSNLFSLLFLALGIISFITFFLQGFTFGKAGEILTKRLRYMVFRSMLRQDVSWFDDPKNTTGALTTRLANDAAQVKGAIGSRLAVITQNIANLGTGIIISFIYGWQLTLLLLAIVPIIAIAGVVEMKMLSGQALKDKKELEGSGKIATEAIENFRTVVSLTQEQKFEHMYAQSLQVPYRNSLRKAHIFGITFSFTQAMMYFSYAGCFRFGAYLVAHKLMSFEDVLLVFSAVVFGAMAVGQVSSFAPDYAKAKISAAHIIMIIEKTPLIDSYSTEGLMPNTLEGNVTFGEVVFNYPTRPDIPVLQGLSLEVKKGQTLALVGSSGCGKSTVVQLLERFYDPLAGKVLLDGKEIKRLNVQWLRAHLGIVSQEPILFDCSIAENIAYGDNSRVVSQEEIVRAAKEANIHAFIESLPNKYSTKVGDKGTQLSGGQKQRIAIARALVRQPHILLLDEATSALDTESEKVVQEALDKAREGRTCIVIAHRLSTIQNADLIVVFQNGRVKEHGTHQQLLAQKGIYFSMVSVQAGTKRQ
From the text: Without being bound by a particular theory, the P-gp inhibitor could help maintin levels of the P-gp substrate in tumors overexpressing the P-gp transporter.

LLC tumor = LLC tumor brei model; type: in vivo
Oral exposure in the dog = type: in vivo
pKa = type: physicochemical
From the text: The phyiscochemical properties of Compound BB are drug-like, and suitable for use of the compound as a drug.

TMD8 cell line = experiment: Combination isobologram in TMD8 cell line; type: cell-based; conditions: combination of Compound AA and Compound BB
human T cells = experiment: Concanavalin A-induced model for activation of human T cells (IFN-γ); type: cell-based; conditions: at isoform selective concentrations
[7] = system: Myeloid Derived Suppressor Cell; experiment: Myeloid Derived Suppressor Cell differentiation assay; type: cell-based; conditions: MDSC differentiation assay

## C[C@H](NC(=O)c1c(N)nn2cccnc12)c1cc2cccc(C#Cc3cnn(C)c3)c2c(=O)n1-c1ccccc1 [Compound BB]
[1]; compared to tumor derived cells from vehicle treated mice
  inhibition of spleen T cell proliferation by cells isolated from tumors of treated mice: less inhibitory of spleen T cell proliferation
[1]; ex vivo T-cell proliferation assay
  immune suppressive environment: reduces immune suppressive environment
[2]
  AUC(0-t): 83700 ng·h/mL
[3]
  CD11b+ cells in 4T1 tumors (IHC): statistically significant reduction in CD11b+ cells
[4]
  VEGF and ARG1 in MDSC differentiation assay: suppressed
Cyp
  Cyp Induction @ 10 uM: Neg (activity and mRNA)
[5]
  suppression of T cell proliferation by cells derived from CT26 mouse tumors: can release the suppression
[6]
  neutrophil in bronchoalveolar lavage fluid (BALF): reduced neutrophil
P-GP (P-glycoprotein 1)
  P-GP inhibition: appears to be an inhibitor of P-GP
P-GP (P-glycoprotein 1); 10 uM, read-out: PGP Inhibition @ 10 uM
  inhibition at 10 µM: 98%
P-GP (P-glycoprotein 1); read-out: PGP Inhibition IC50
  IC50: < 1000 nM
LLC tumor
  CD206+M2 polarized suppressive macrophages: reduces
  TAMs: decreased
Oral exposure in the dog
  oral exposure: high
pKa
  pKa: no ionization from pH 3-10
TMD8 cell line
  combination effect (isobologram): synergistic effect
Human T cells
  effect on IFN-γ: little to no effect
[7]
  ARG1: suppresses
  VEGF: suppresses
